Test results: US12414948B2, “Methods” (INTRA-CELLULAR THERAPIES, INC., priority 2022, dated 2025)

Key:
[1] = tested on: patients with schizophrenia; experiment: Randomized, double-blind, placebo-controlled phase 3 clinical trial in schizophrenia; assay type: in vivo, human
Method: A randomized, double-blind, placebo-controlled, phase 3 clinical trial was conducted with 450 patients with schizophrenia, aged 18 to 60 years, who were experiencing an acute exacerbation of psychosis. Patients were included if they were experiencing an acute exacerbation of psychosis, defined as a total score on the Brief Psychiatric Rating Scale of […] or higher, with a score of 4 or higher on 2 or more positive symptoms, and onset of the acute episode within 4 weeks of screening. Patients were required to have a score of 4 or higher, indicating moderate to severe disease severity, on the Clinical Global Impression-Severity of Illness (CGI-S) at screening and baseline. […]
The primary efficacy end point was mean change from baseline to day 28 in the Positive and Negative Syndrome Scale (PANSS) total score versus placebo. […] The PANSS subscale scores, social function, safety, and tolerability were also assessed. Primary and key secondary efficacy measures were assessed weekly. Safety was assessed by treatment-emergent adverse events (TEAEs), modified physical examinations, 12-lead electrocardiograms (ECGs), vital signs, and clinical laboratory tests (blood and urine samples for clinical laboratory analysis were collected from all subjects upon screening and on Days 1, 8, 28, and 33, following overnight fast).

[2] = tested on: PBMCs from patients with schizophrenia and co-morbid depression; experiment: Post-hoc analysis of inflammatory biomarkers in PBMCs, phase 3 clinical trial; assay type: in vivo, human
Method: A randomized, double-blind, placebo-controlled, phase 3 clinical trial was conducted with 450 patients with schizophrenia, aged 18 to 60 years, who were experiencing an acute exacerbation of psychosis. Patients were included if they were experiencing an acute exacerbation of psychosis, defined as a total score on the Brief Psychiatric Rating Scale of […] or higher, with a score of 4 or higher on 2 or more positive symptoms, and onset of the acute episode within 4 weeks of screening. Patients were required to have a score of 4 or higher, indicating moderate to severe disease severity, on the Clinical Global Impression-Severity of Illness (CGI-S) at screening and baseline. Severity of illness was confirmed at baseline by a Positive and Negative Syndrome Scale (PANSS) total score of 70 or higher, indicating moderate to extreme symptoms of schizophrenia. A subgroup of these patients experienced co-morbid depression symptoms at baseline (defined as having a Calgary Depression Scale for Schizophrenia (CDSS) score greater than 6 at baseline). Full details of the clinical study were reported in Correll et al., JAMA Psychiatry, 77(4): 349-358 (2020).
Using blood samples stored from the study, a post-hoc analysis of inflammatory biomarkers in PBMCs from the patients with schizophrenia and co-morbid depression is conducted. […] Day 0 samples are available for 20 patients, while day 28 samples are available only for 18 patients. Mean baseline CDSS is 10.0, and mean baseline PANSS total score is 88.7 in the selected patients.
Samples were processed to isolate PBMC according to standard procedures using the Ficoll-Paque method. Statistical analysis was performed using the paired t-test, two-tailed. Samples were tested for C-reactive protein (CRP), serum amyloid A (SAA), soluble CAM-1, soluble VCAM-1, IL-1β, TNF-αL, IL-6, IL-10, IL-2, IL-8, IL-13, and IFN-γ. ICAM-1 and VCAM-1 are expressed by the vascular endothelium, macrophages, and lymphocytes. Upon cytokine stimulation, their concentrations greatly increase. ICAM-1 can be induced by IL-1β and TNF. ICAM and VCAM proteins may also be involved in pathogen transit into CNS.
The results are shown in the table below (biomarker levels expressed in ng/mL; some values of N are less than the patient totals due to samples with levels of biomarker below the minimum for quantification): […]

[3] = tested on: Sprague-Dawley rats; experiment: Reward sniffing test (female urine sniffing test, FUST), LPS-induced anhedonia; assay type: in vivo, rat; conditions: rats given LPS 1 mg/kg SC, label LPS = LPS + Vehicle, label Luma = Luma 1 mg/kg IP 24 h before and 24 h after LPS
Method: All other reagents are obtained in the highest purity available from Sigma-Aldrich (St. Louis, MO) unless otherwise noted. […] Some rodents are given a cotreatment with a subcutaneous (SC) injection of lipopolysaccharide (LPS, 500 μg/kg; Sigma-Aldrich, ref #0127:B8) diluted in 0.9% injectable saline while control group animals receive injections of all vehicles matching the experimental conditions. […] On day 2, either no injection for naïve rats, or saline or LPS is injected (1 mg/kg, SC).
Behavioral Evaluation. All behavioral tests are performed in the morning with adult male Sprague-Dawley rats (n=9-11 per group for the experiments with LPS, and n=13-14 per group for the naïve rats).
Reward Sniffing Test (also known also as female urine sniffing test (FUST)): In this anhedonia-based assay, rats are brought to a well-ventilated testing room under dim lighting. A sterile cotton-tipped applicator is attached to one wall in the home cage for 1 hour to habituate rats to this new object. For the 2 phases of the 5 minute test, rats are first exposed to a new cotton tip dipped in sterile water as a control that is removed at the end of the 5 minutes; 45 minutes later, another cotton tip previously dipped into fresh rat urine collected from females of the same strain is attached to the cage wall. Male behavior is video recorded and latency to first sniff of the cotton tip and total time spent sniffing the cotton-tipped applicator are determined.
In a pilot study, a dose response curve is conducted with varying doses of LPS to select an optimal dose for inducing an anhedonic response in rats. Based on these studies, a SC dose of 1 mg/kg LPS is selected. […] This is followed 24 hours later by an injection of LPS (1 mg/kg; SC). […] Control rats are administered saline instead of LPS and vehicle instead of lumateperone. Anhedonia is assessed using FUST (female urine sniffing test) and measuring latency to sniff the reward combined with time spent sniffing the reward. Latency sniffing water is used as a control. […]

[4] = tested on: blood-brain barrier (NaFl brain penetration); experiment: BBB permeability assay (sodium fluorescein), LPS paradigm; assay type: in vivo, mouse; conditions: mice, 2 h, label LPS = LPS alone, label Luma = Luma 3 mg/kg IP co-injected with LPS
Method: BBB Permeability Assay. […] Mice are perfused with 15 ml 1×PBS solution.
Systemic inflammation is associated with increased permeability of the BBB, and this has been discussed as a potential factor underlying depression pathophysiology. […] Forty-five minutes before sample collection, mice receive NaFl injections (200 μl of 10% solution, IP) (Table 3).

[5] = Day 28 of 60 mg lumateperone once daily, PBMC, schizophrenia patients with co-morbid depression

| Compound | Symptoms of schizophrenia ([1]; patients with acute exacerbation of psychosis, 60 mg or 40 mg lumateperone tosylate once daily for 28 days vs placebo) | Safety profile ([1]; patients with schizophrenia, 60 mg or 40 mg lumateperone tosylate once daily for 28 days) | CRP, Median [2, 5] | IFN-γ, Average [2, 5] | IFN-γ, Median [2, 5] | IL-1β, Median [2, 5] | IL-2, Average [2, 5] | IL-2, Median [2, 5] | IL-6, Average [2, 5] | IL-6, Median [2, 5] | IL-8, Median [2, 5] | IL-10, Median [2, 5] | TNF-α, Average [2, 5] | TNF-α, Median [2, 5] | sVCAM-1, Median [2, 5] | Levels of inflammatory biomarkers in blood cells (PBMCs) ([2]; after 28 days of treatment, versus baseline, patients with schizophrenia and co-morbid depression) | FUST Latency sniffing water ([3]; control test) | FUST Latency sniffing reward [3] | FUST Time sniffing reward [3] | NaFl brain penetration (cerebrum/serum ratio) [4] |
| --- | --- | --- | --- | --- | --- | --- | --- | --- | --- | --- | --- | --- | --- | --- | --- | --- | --- | --- | --- | --- |
| CN1CCN2c3c(cccc31)[C@@H]1CN(CCCC(=O)c3ccc(F)cc3)CC[C@@H]12 [Luma, lumateperone] | effective for improving the symptoms of schizophrenia | favorable safety profile | 38.0 ng/mL | 0.86 ng/mL | 0.71 ng/mL | 0.74 ng/mL | 0.37 ng/mL | 0.25 ng/mL | 0.55 ng/mL | 0.32 ng/mL | 44.0 ng/mL | 0.21 ng/mL | 0.83 ng/mL | 0.43 ng/mL | 42.0 ng/mL | significantly reduced | – | – | – | – |
| lipopolysaccharide [LPS, reference compound] | – | – | – | – | – | – | – | – | – | – | – | – | – | – | – | – | 274.27 s | 164.2 s | 11.11 s | 1.406 ± 0.0873 arbitrary units normalized to control |
